Patent US7829528B2, “Compositions and methods for treating STAT-6 associated diseases or conditions” (The Rockefeller University, priority 2004, dated 2010)
Where no end group is shown, it is not given here.

Experiments:
IL-13 mRNA = assay: Semiquantitative RT-PCR of IL-13 mRNA in splenocytes; assay type: cell-based, BALB/c mice; settings: splenocytes cultured with ovalbumin plus peptide
Protocol: (§1) The levels of mRNA encoding IL-4, IL-13 and IFN-gamma were also evaluated by semiquantitative RT-PCR analysis. Ovalbumin-induced expression of both IL-4 and IL-13 mRNA was inhibited in splenocytes cultured with the STAT-6-IP and not the STAT-6-CP. […] The number of CD4+ T cells producing IL-4 was also quantified by intracellular cytokine staining. When splenocytes from ovalbumin-sensitized mice were cultured with ovalbumin, there was a significant increase in the number of CD4+ lymphocytes expressing IL-4 (Table 4). The increase in IL-4 expression was abrogated in splenocytes cultured with ovalbumin in the presence of the STAT-6-IP, while the STAT-6-CP had no effect.
Reverse transcriptase (RT)-PCR was used to monitor expression of mRNAs encoding IL-4, IL-13 and IFN-gamma. Materials for RNA extraction and RT-PCR were purchased from INVITROGEN™ Canada (Burlington, Ontario). Total RNA was extracted from splenocytes, treated with DNAse, and 1 μg of RNA was reverse transcribed into cDNA using SUPERSCRIPT™ II reverse transcriptase. […] PCR products were resolved by gel electrophoresis and visualized and quantified on a FLUORCHEM™ 8000 Imaging System (Alpha Innotech, San Leandro, Calif.) using ALPHAEASE™ software (Alpha Innotech). […]

[1] = tested on: CD4+ lymphocytes expressing IL-4; assay: Intracellular cytokine staining of CD4+ T cells producing IL-4 (flow cytometry); assay type: cell-based, BALB/c mice; settings: ovalbumin + 100 μM peptide, ovalbumin alone 90.21 ± 8.02
Protocol: as §1
BALB/c mice were sensitized systemically by two weekly i.p. injections of 0.025% ovalbumin mixed with 4 mg/mL Al(OH)3. One week after the second sensitization, mice were sacrificed and spleens harvested. A single cell suspension of splenocytes (5×10^6 cells/mL) was cultured in RPMI-1640 medium containing 10% heat-inactivated fetal bovine serum and 2 mM L-glutamine, 50 μM 2-mercaptoethanol, 100 U/mL penicillin, and 100 μg/mL streptomycin sulfate. […] After four days, culture supernatants were harvested to quantify cytokine production by ELISA. […] Cytokine expression was monitored by flow cytometry and analyzed using CELLQUEST™ software (Becton Dickinson). […]

IL-13 = assay: Ovalbumin-induced IL-13 production by splenocytes from ovalbumin-sensitized mice (ELISA); assay type: cell-based, BALB/c mice; settings: ovalbumin 100 μg/mL + 100 μM peptide added daily, four days; ovalbumin alone 2585.4 ± 165.7
Protocol: Splenocytes from ovalbumin-sensitized mice were cultured for four days with no antigen, with ovalbumin alone, or with ovalbumin plus the STAT-6-IP or a STAT-6 Tyr-641 mutant (STAT-6-CP; Tyr-Ala-Arg-Ala-Ala-Ala-Arg-Gln-Ala-Arg-Ala-Gly-Arg-Gly-Phe-Val-Ser-Thr-Thr; SEQ ID NO:8). The STAT-6-IP and STAT-6-CP were added to splenocyte cultures daily. Treatment with the STAT-6-IP, but not the STAT-6-CP, reduced the supernatant levels of both IL-4 and IL-13 (Table 3).
BALB/c mice were sensitized systemically by two weekly i.p. injections of 0.025% ovalbumin mixed with 4 mg/mL Al(OH)3. One week after the second sensitization, mice were sacrificed and spleens harvested. A single cell suspension of splenocytes (5×10^6 cells/mL) was cultured in RPMI-1640 medium containing 10% heat-inactivated fetal bovine serum and 2 mM L-glutamine, 50 μM 2-mercaptoethanol, 100 U/mL penicillin, and 100 μg/mL streptomycin sulfate. Splenocytes were cultured for four days in the presence or absence of 100 μg/mL ovalbumin, either alone or with 100 μM STAT-6-IP or STAT-6-CP, which were added daily. After four days, culture supernatants were harvested to quantify cytokine production by ELISA. […] Cytokine expression was monitored by flow cytometry and analyzed using CELLQUEST™ software (Becton Dickinson). […]

[2] = tested on: ovalbumin-sensitized mice; assay: Histology of lungs; assay type: in vivo, BALB/c mice; settings: compared with ovalbumin-sensitized and -challenged animals
Protocol: Histology was performed according to established methods (McCusker, et al. (2002) supra). Briefly, lungs were slowly inflated with 1 mL of formalin, isolated, and placed entirely in formalin. The specimens were embedded in paraffin and […] sections prepared. Slides were stained with Giemsa and examined under standard light microscopy.

With “YARAAARQARAGRGFVSTT [STAT-6-CP, STAT-6 Tyr-641 mutant, control peptide]” the “Inhibition of ovalbumin-induced expression of IL-13 mRNA” value (IL-13 mRNA) was “not”, the “Percentage of IL4 positive cells ± SEM” value [1] was 92.13 ± 5.62 Percentage and the “IL-13 (pg/mL ± SEM), culture supernatant” value (IL-13) was 2136.2 ± 94.7 pg/mL. For the same sequence, the “Ovalbumin-induced lung inflammation, including airway eosinophilia (histology)” value [2] was “did not differ”.
